Assay results taken from patent US9284333B2, “Fused pyrroledicarboxamides and their use as pharmaceuticals” (SANOFI, priority 2012, dated 2016).

target: Human TASK-1 channels (Homo sapiens (Human), UniProt O14649); assay: Determination of the activity on the TASK-1 channel in Xenopus oocytes (two-microelectrode voltage clamp); assay type: cell-based; settings: compound concentration 5 μM
Summary of the method: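 Current during 500 ms pulses to 40 mV from a −90 mV hold was recorded in oocytes expressing human TASK-1 for two days after cRNA injection. Compounds were added cumulatively to the ND96 bath (pH 7.4, room temperature). IC50 came from dose-response fitting of inhibition relative to pre-compound current.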

Human TASK-1 channels, sequence (O14649 whole entry): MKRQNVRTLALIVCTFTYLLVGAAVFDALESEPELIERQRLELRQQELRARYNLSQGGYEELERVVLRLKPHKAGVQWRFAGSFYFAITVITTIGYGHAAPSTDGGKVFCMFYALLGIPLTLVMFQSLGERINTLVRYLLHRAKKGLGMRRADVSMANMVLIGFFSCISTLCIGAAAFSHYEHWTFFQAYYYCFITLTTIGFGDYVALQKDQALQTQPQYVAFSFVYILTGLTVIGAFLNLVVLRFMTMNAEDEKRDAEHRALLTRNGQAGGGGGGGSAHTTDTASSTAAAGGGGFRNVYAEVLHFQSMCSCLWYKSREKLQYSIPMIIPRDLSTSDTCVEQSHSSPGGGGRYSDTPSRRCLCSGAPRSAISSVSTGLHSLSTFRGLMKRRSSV

inhibition at 5 µM [%] | Compound
85 | CC[C@H](NC(=O)c1cc(C(=O)N2CCC[C@@H]2C)n2c1COCC2)c1c(F)cc(C(F)(F)F)cc1F [16cm, 6-((S)-2-Methyl-pyrrolidine-1-carbonyl)-3,4-dihydro-1H-pyrrolo[2,1-c][1,4]oxazine-8-carboxylic acid [(S)-1-(2,6-difluoro-4-trifluoromethyl-phenyl)-propyl]-amide]
85 | CC[C@@H](NC(=O)c1cc(C(=O)N2CCC[C@@H]2C)n2c1COCC2)c1ccc(C)cc1 [16be, 6-((S)-2-Methyl-pyrrolidine-1-carbonyl)-3,4-dihydro-1H-pyrrolo[2,1-c][1,4]oxazine-8-carboxylic acid ((R)-1-p-tolyl-propyl)-amide]
87 | C[C@@H](NC(=O)c1cc(C(=O)N2CCC[C@@H]2C)n2c1COCC2)c1ccc(Cl)cc1 [16as, 6-((S)-2-Methyl-pyrrolidine-1-carbonyl)-3,4-dihydro-1H-pyrrolo[2,1-c][1,4]oxazine-8-carboxylic acid [(R)-1-(4-chloro-phenyl)-ethyl]-amide]
60 | CC[C@@H](NC(=O)c1cc(C(=O)N2CCC[C@@H]2C)n2c1COCC2)c1ccc(SC)nc1 [16ra, 6-((S)-2-Methyl-pyrrolidine-1-carbonyl)-3,4-dihydro-1H-pyrrolo[2,1-c][1,4]oxazine-8-carboxylic acid [(R)-1-(6-methylsulfanyl-pyridin-3-yl)-propyl]-amide]
84 | C[C@@H](NC(=O)c1cc(C(=O)NCC(F)(F)F)c2n1CCOC2)c1ccc(F)cc1 [16dr, 3,4-Dihydro-1H-pyrrolo[2,1-c][1,4]oxazine-6,8-dicarboxylic acid 6-{[(R)-1-(4-fluoro-phenyl)-ethyl]-amide} 8-[(2,2,2-trifluoro-ethyl)-amide]]

same assay, conditions: human TASK-1 expressed in Xenopus oocytes, room temperature; read-out: IC50 value for TASK-1 inhibition

IC50 [nM] | Compound
240 | CC[C@@H](NC(=O)c1cc(C(=O)N[C@H](CC)c2cccc(O)n2)n2c1COCC2)c1ccccc1 [16rh, 3,4-Dihydro-1H-pyrrolo[2,1-c][1,4]oxazine-6,8-dicarboxylic acid 6-{[(R)-1-(6-hydroxy-pyridin-2-yl)-propyl]-amide} 8-[((R)-1-phenyl-propyl)-amide]]
250 | CC[C@@H](NC(=O)c1cc(C(=O)N(CC)CC)n2c1COCC2)c1ccccc1 [16gn, 3,4-Dihydro-1H-pyrrolo[2,1-c][1,4]oxazine-6,8-dicarboxylic acid 6-diethylamide 8-[((R)-1-phenyl-propyl)-amide]]
4900 | CC[C@@H](NC(=O)c1cc(C(=O)N[C@H](CC)c2cccc(C(=O)O)c2)n2c1COCC2)c1ccccc1 [16rm, 3-((R)-1-{[8-((R)-1-Phenyl-propylcarbamoyl)-3,4-dihydro-1H-pyrrolo[2,1-c][1,4]oxazine-6-carbonyl]-amino}-propyl)-benzoic acid]
560 | CC[C@H](NC(=O)c1cc(C(=O)N[C@H](CC)c2ccccc2)c2n1CCOC2)c1ccc(OC)nc1 [16hp, 3,4-Dihydro-1H-pyrrolo[2,1-c][1,4]oxazine-6,8-dicarboxylic acid 6-{[(S)-1-(6-methoxy-pyridin-3-yl)-propyl]-amide} 8-[((R)-1-phenyl-propyl)-amide]]
5100 | CC[C@@H](NC(=O)c1cc(C(=O)N2CCCC2c2ncccn2)n2c1COCC2)c1ccccc1 (stereo partly drawn) [16fz, 6-(2-Pyrimidin-2-yl-pyrrolidine-1-carbonyl)-3,4-dihydro-1H-pyrrolo[2,1-c][1,4]oxazine-8-carboxylic acid ((R)-1-phenyl-propyl)-amide]
200 | CC[C@@H](NC(=O)c1cc(C(=O)N2Cc3ccccc3C2)n2c1COCC2)c1ccccc1 [16ih, 6-(1,3-Dihydro-isoindole-2-carbonyl)-3,4-dihydro-1H-pyrrolo[2,1-c][1,4]oxazine-8-carboxylic acid ((R)-1-phenyl-propyl)-amide]
620 | CC[C@@H](NC(=O)c1cc(C(=O)Nc2c(C)noc2C)c2n1CCOC2)c1ccccc1 [16jk, 3,4-Dihydro-1H-pyrrolo[2,1-c][1,4]oxazine-6,8-dicarboxylic acid 8-[(3,5-dimethyl-isoxazol-4-yl)-amide] 6-[((R)-1-phenyl-propyl)-amide]]
110 | CC[C@@H](NC(=O)c1cc(C(=O)N2CCC[C@@H]2C)n2c1COCC2)c1ccc(F)cc1F [16v, 6-((S)-2-Methyl-pyrrolidine-1-carbonyl)-3,4-dihydro-1H-pyrrolo[2,1-c][1,4]oxazine-8-carboxylic acid [(R)-1-(2,4-difluoro-phenyl)-propyl]-amide]
48 | CC[C@@H](NC(=O)c1cc(C(=O)N[C@H]2CCc3ccccc32)n2c1COCC2)c1ccccc1 [16gj, 3,4-Dihydro-1H-pyrrolo[2,1-c][1,4]oxazine-6,8-dicarboxylic acid 6-(S)-indan-1-ylamide 8-[((R)-1-phenyl-propyl)-amide]]
2200 | CC[C@@H](NC(=O)c1cc(C(=O)NCCOC)n2c1COCC2)c1ccccc1 [16gh, 3,4-Dihydro-1H-pyrrolo[2,1-c][1,4]oxazine-6,8-dicarboxylic acid 6-[(2-methoxy-ethyl)-amide] 8-[((R)-1-phenyl-propyl)-amide]]
120 | CC[C@@H](NC(=O)c1cc(C(=O)N2CCC[C@@H]2C)n2c1COCC2)c1ccc(F)cc1 [16az, 6-((S)-2-Methyl-pyrrolidine-1-carbonyl)-3,4-dihydro-1H-pyrrolo[2,1-c][1,4]oxazine-8-carboxylic acid [(R)-1-(4-fluoro-phenyl)-propyl]-amide]
80 | CC[C@@H](NC(=O)c1cc(C(=O)NCC2CC2)n2c1COCC2)c1ccccc1Cl [16ld, 3,4-Dihydro-1H-pyrrolo[2,1-c][1,4]oxazine-6,8-dicarboxylic acid 8-{[(R)-1-(2-chloro-phenyl)-propyl]-amide} 6-cyclopropylmethyl-amide]
650 | CC[C@@H](NC(=O)c1cc(C(=O)NCc2ncn[nH]2)n2c1COCC2)c1ccccc1 [16ii, 3,4-Dihydro-1H-pyrrolo[2,1-c][1,4]oxazine-6,8-dicarboxylic acid 8-[((R)-1-phenyl-propyl)-amide] 6-[(2H-[1,2,4]triazol-3-ylmethyl)-amide]]
820 | CC[C@@H](NC(=O)c1cc(C(=O)N2[C@@H](COC)CC[C@@H]2COC)n2c1COCC2)c1ccccc1 [16ep, 6-((2R,5R)-2,5-Bis-methoxymethyl-pyrrolidine-1-carbonyl)-3,4-dihydro-1H-pyrrolo[2,1-c][1,4]oxazine-8-carboxylic acid ((R)-1-phenyl-propyl)-amide]
290 | CC[C@@H](NC(=O)c1cc(C(=O)N2CCC[C@@H]2c2ccccn2)n2c1COCC2)c1ccccc1 [16fk, 6-((R)-2-Pyridin-2-yl-pyrrolidine-1-carbonyl)-3,4-dihydro-1H-pyrrolo[2,1-c][1,4]oxazine-8-carboxylic acid ((R)-1-phenyl-propyl)-amide]
100 | CC[C@@H](NC(=O)c1cc(C(=O)NCC2CC2)n2c1COCC2)c1ccccc1 [16gc, 3,4-Dihydro-1H-pyrrolo[2,1-c][1,4]oxazine-6,8-dicarboxylic acid 6-cyclopropylmethyl-amide 8-[((R)-1-phenyl-propyl)-amide]]

Compound | IC50 [nM]
CC[C@@H](NC(=O)c1cc(C(=O)N2CC[C@H](OCC(C)C)C2)n2c1COCC2)c1ccccc1 [16fg, 6-((S)-3-Isobutoxy-pyrrolidine-1-carbonyl)-3,4-dihydro-1H-pyrrolo[2,1-c][1,4]oxazine-8-carboxylic acid ((R)-1-phenyl-propyl)-amide] | 1300
